{
  "source": "patent US11370769B2",
  "about": "“TRPC5 inhibitors and methods of using same” (BOARD OF REGENTS OF THE UNIVERSITY OF NEBRASKA, priority 2017, dated 2022)",
  "target": "T1, TRPC6 channels (Rattus norvegicus, UniProt Q99N78)",
  "T1 construct": "Acutely isolated glomeruli were prepared as described above; from tissue; host or cells: acutely isolated glomeruli (podocytes) of AT1R Tg and WT rats",
  "T1 sequence (Q99N78 1-930)": "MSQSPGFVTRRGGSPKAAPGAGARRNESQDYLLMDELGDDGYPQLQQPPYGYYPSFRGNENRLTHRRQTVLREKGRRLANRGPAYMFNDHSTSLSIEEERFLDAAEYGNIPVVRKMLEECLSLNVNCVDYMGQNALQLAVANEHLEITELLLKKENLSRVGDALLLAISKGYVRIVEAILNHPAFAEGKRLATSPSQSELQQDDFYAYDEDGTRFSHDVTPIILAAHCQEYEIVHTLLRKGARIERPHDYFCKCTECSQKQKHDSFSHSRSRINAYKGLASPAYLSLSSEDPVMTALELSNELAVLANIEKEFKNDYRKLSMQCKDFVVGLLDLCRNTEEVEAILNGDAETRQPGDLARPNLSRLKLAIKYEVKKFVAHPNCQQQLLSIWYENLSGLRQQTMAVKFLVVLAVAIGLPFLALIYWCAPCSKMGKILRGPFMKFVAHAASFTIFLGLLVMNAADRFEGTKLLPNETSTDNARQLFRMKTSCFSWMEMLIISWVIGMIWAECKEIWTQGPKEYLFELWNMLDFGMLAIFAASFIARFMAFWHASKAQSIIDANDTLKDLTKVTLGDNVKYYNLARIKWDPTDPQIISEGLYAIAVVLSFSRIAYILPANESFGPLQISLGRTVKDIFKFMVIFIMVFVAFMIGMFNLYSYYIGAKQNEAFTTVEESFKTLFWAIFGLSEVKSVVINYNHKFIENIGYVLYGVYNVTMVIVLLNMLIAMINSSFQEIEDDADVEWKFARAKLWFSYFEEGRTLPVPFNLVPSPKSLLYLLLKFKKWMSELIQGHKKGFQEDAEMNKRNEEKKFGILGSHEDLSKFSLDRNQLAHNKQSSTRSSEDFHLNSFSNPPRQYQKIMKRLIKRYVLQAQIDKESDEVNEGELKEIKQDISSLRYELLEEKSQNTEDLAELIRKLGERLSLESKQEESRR",
  "assay": "Glomerular inside-out single-channel recordings, OAG-induced conductances",
  "assay_type": "cell-based",
  "conditions": "glomeruli from age matched AT1R Tg rats and WT controls",
  "method": "Acute glomeruli isolation and Ca^2+-imaging: WT and AT1R Tg littermates were killed and kidneys were quickly dissected and washed with ice-cold PBS. After isolation using the sieving technique as previously described (11), glomeruli were incubated with the Ca^2+ indicator Fura2-AM (1 μM; Invitrogen) at 37° C. for 15 min. The extracellular solution for Ca^2+-imaging contained (in mM) 140 NaCl, 5 KCl, 10 HEPES, 2 MgCl2, 2 CaCl2, 10 glucose, with pH7.4 adjusted with NaOH. Glomerular Ca^2+-imaging was performed using an inverted microscope (Olympus IX70) with a high-speed CCD camera (Hamamatsu Photonics). Images were taken and analyzed using the Metafluor software (Molecular Devices). It should be noted that Fura-2 is most often taken up by podocytes at the periphery of the isolated glomerulus, but the specificity of recordings in podocytes is best confirmed by patch clamp electrophysiology, as described below.\nGlomerular single-channel recordings: Acutely isolated glomeruli were prepared as described above. Single-channel recordings were carried out using an Axopatch 200B and Digidata 1550A (Molecular Devices). Bath and pipette solutions for glomerular single-channel recording contained (in mM) 135 CH3SO3Na, 5 CsCl, 2 CaCl2, 1 MgCl2, 10 HEPES, and 10 glucose with pH7.4 adjusted with NaOH. […]",
  "data": [
    {"smiles": "Cc1cc(N2CCCCC2)nc2ccccc12", "note": "[ML204, reference compound]", "values": [
      {"measurement": "inhibition of OAG-induced conductances", "value": "no inhibition"}
    ]}
  ]
}
